We go through 42 compounds from the RepoRT retention time repository (doi:10.1021/acs.analchem.1c00972).

The nature of series [1]: RP, Waters ACQUITY UPLC BEH C18, 100 × 1 mm, 1.7 µm, 50 °C, 0.3 mL/min, estimated dead time 0.17 min; A: water + 10 mM ammonium bicarbonate; B: 10% water + 90% methanol + 10 mM ammonium bicarbonate; gradient (min/%B) 0/0 15/100 21/100 22/0 30/0. The settings on record: stereoisomer not certain.
A short description of series [2]: RP, Waters ACQUITY UPLC BEH C18, 100 × 1 mm, 1.7 µm, 50 °C, 0.3 mL/min, estimated dead time 0.17 min; A: water + 0.1% formic acid + 20 mM ammonium formate; B: methanol + 0.1% formic acid + 20 mM ammonium formate; gradient (min/%B) 0/0 15/100 21/100 22/0 30/0. The settings on record: stereoisomer not certain.

In the case of `CCCCOCCOCCO` [Diethylene glycol monobutyl ether], the LC retention time in series [1] is 10.9 min; in series [2] it was 10.8 min.

On to `O=C1CCCCCCCCCCC1` [Cyclododecanone], for which the LC retention time in series [1] is 16.5 min; in series [2], 16.1 min.

Consider `CCCCOC(=O)CCCCCCCCC(=O)OCCCC` [Dibutyl sebacate], for which the figures for the LC retention time in series [1] and in series [2] were 18.5 min and 18.1 min, respectively.

Take `c1ccc2sc(SN3CCOCC3)nc2c1` [2-Morpholinothiobenzothiazole]: the LC retention time in series [1] was 10 min; in series [2], 12.1 min.

As for `CCCc1nc(C)c2c(=O)[nH]c(-c3cc(S(=O)(=O)N4CCN(CC)CC4)ccc3OCC)nn12` [Vardenafil], the results for the LC retention time in series [1] and in series [2] were 14.8 min and 12.2 min, respectively.

`CC=C1CC(C)C(C)(O)C(=O)OCC2=CCN(C)CCC(OC1=O)C2=O` (centres undefined) [Senkirkine]: the LC retention time in series [1] was 10.2 min; in series [2], 9.47 min.

For the compound `Cc1nccn1CC1CCc2c(c3ccccc3n2C)C1=O` (centres undefined) [Ondansetron], the LC retention time in series [1] was 12.4 min; in series [2], 9.64 min.

Take `CCOC(=O)CC(O)(CC(=O)OCC)C(=O)OCC` [Triethylcitrate]: the LC retention time in series [1] was 12.1 min; in series [2], 11.9 min.

With `CC1CC2(OC2C)C(=O)OC2CCN3CC=C(COC(=O)C1(C)O)C23` (centres undefined) [Jacobine], the LC retention time in series [1] is 10.1 min; in series [2] it was 6.52 min.

With `CN(Cc1cnc2nc(N)nc(N)c2n1)c1ccc(C(=O)NC(CCC(=O)O)C(=O)O)cc1` (centres undefined) [Methotrexate], the figures for the LC retention time in series [1] and in series [2] were 6.74 min and 7.89 min, respectively.

As for `Clc1nc2ccccc2s1` [2-Chlorobenzothiazole], the results for the LC retention time in series [1] and in series [2] were 13.8 min and 13.5 min, respectively.

As to `COc1c(C(C)(C)C)cc([N+](=O)[O-])c(C)c1[N+](=O)[O-]` [Musk ambrette], the values for the LC retention time in series [1] and in series [2] were 6.58 min and 8.38 min, respectively.

As for `CCOc1cc(C(C)(C)C)ccc1C1COC(c2c(F)cccc2F)=N1` (centres undefined) [Etoxazole], the LC retention time in series [1] was 17.8 min; in series [2], 17.4 min.

As to `COc1ccc2c3c1OC1C(O)C=CC4C(C2)N(C)CCC341` (centres undefined) [Codein], the LC retention time was 12.1 min in series [1] and 6.77 min in series [2].

With `CC12CCC(=O)C=C1C1CC1C1C2CCC2(C)C1C1CC1C21CCC(=O)O1` (centres undefined) [Drospirenone], the LC retention time in series [1] was 14.5 min; in series [2] it was 14.2 min.

Take `COC(=O)C(c1ccccc1Cl)N1CCc2sccc2C1` (centres undefined) [Clopidogrel]: the values for the LC retention time in series [1] and in series [2] were 16.5 min and 15.4 min, respectively.

Turning to `COc1ccc(Cc2nccc3cc(OC)c(OC)cc23)cc1OC` [Papaverin], the results for the LC retention time in series [1] and in series [2] were 13.3 min and 9.77 min, respectively.

As to `CC=C1CC(C)C(O)(CO)C(=O)OCC2=CC[N+]3([O-])CCC(OC1=O)C23` (centres undefined) [Retrorsine N-oxide], the LC retention time in series [1] was 8.61 min; in series [2] it was 7.74 min.

`c1ccc2sc(N3CCOCC3)nc2c1` [2(4-morpholinyl)benzothiazole]: the LC retention time in series [1] was 13.2 min; in series [2] it was 12.7 min.

Take `CC1CCN(CCCC(=O)c2ccc(F)cc2)CC1` [Melperon]: the values for the LC retention time in series [1] and in series [2] were 15.4 min and 10 min, respectively.

Take `CC(=O)C1CCC2C3CCC4=CC(=O)CCC4(C)C3CCC12C` (centres undefined) [Progesterone]: the LC retention time is 15.9 min in series [1] and 15.5 min in series [2].

Turning to `CSc1nc2ccccc2s1` [2-(Methylthio)benzothiazole], the results for the LC retention time in series [1] and in series [2] were 14.3 min and 14 min, respectively.

Take `CCOC(=O)Nc1cccc(OC(=O)Nc2ccccc2)c1` [Desmedipham]: the LC retention time is 13.6 min in series [1] and 13.5 min in series [2].

In the case of `CCCCCCOC(=O)c1ccccc1C(=O)OCC(CC)CCCC` (centres undefined) [2-Ethylhexyl(hexyl)phthalate], the LC retention time was 19.4 min in series [1] and 18.9 min in series [2].

Turning to `CC=C(C)C(=O)OC1CC[N+]2([O-])CC=C(COC(=O)C(O)(C(C)OC)C(C)(C)O)C12` (centres undefined) [Lasiocarpine N-oxide], the LC retention time was 11.7 min in series [1] and 11 min in series [2].

As to `COP(=S)(S)OC` [Dimethyldithiophosphate], the LC retention time in series [1] was 2.81 min; in series [2], 2.01 min.

For `Nc1ccc(Nc2ccccc2)cc1` [4-Aminodiphenylamine], the LC retention time is 11.5 min in series [1] and 8.71 min in series [2].

On to `CC(=O)OCC(COC(C)=O)OC(C)=O` [Triacetin], for which the figures for the LC retention time in series [1] and in series [2] were 9.54 min and 9.42 min, respectively.

For `CC(=O)CCCCn1c(=O)c2c(ncn2C)n(C)c1=O` [Pentoxifylline], the LC retention time in series [1] is 9.98 min; in series [2], 9.87 min.

As to `CCN(CC)c1ccc2c(C)cc(=O)oc2c1` [7-Diethylamino-4-methylcoumarin], the LC retention time in series [1] is 14.7 min; in series [2], 14.4 min.

`Cc1cccc2sc3nncn3c12` [Tricyclazole]: the LC retention time in series [1] is 10.4 min; in series [2], 10.3 min.

As to `CC(C)(C)c1cccc(C(C)(C)C)c1O` [2,6-di-tert-Butylphenol], the results for the LC retention time in series [1] and in series [2] were 16.6 min and 16.2 min, respectively.

For the compound `OC1C=C2CCN3Cc4cc5c(cc4C(C1O)C23)OCO5` (centres undefined) [Lycorine], the LC retention time in series [1] is 9.11 min; in series [2] it was 4.33 min.

As for `Fc1ccc(C2CCNCC2COc2ccc3c(c2)OCO3)cc1` (centres undefined) [Paroxetine], the results for the LC retention time in series [1] and in series [2] were 15 min and 12.8 min, respectively.

In the case of `COc1ncc(F)c2nc(S(=O)(=O)Nc3c(F)cccc3F)nn12` [Florasulam], the LC retention time is 9 min in series [1] and 10.5 min in series [2].

In the case of `CCNS(=O)(=O)c1ccccc1C` [N-Ethyl-o-toluenesulfonamide], the LC retention time in series [1] was 11.6 min; in series [2], 11.4 min.

As to `CCC1OC(=O)C(C)C(OC2CC(C)(OC)C(O)C(C)O2)C(C)C(OC2OC(C)CC(N(C)C)C2O)C(C)(O)CC(C)CN(C)C(C)C(O)C1(C)O` (centres undefined) [Azithromycin], the results for the LC retention time in series [1] and in series [2] were 17.4 min and 11.2 min, respectively.

For `CCCCCC(C)OC(=O)COc1ccc(Cl)c2cccnc12` (centres undefined) [Cloquintocet-mexyl], the LC retention time in series [1] was 17.3 min; in series [2], 16.9 min.

On to `CN1CCN2c3ncccc3Cc3ccccc3C2C1` (centres undefined) [Mirtazapine], for which the results for the LC retention time in series [1] and in series [2] were 14.9 min and 9.7 min, respectively.

With `CC(C)c1ccc2sc3ccccc3c(=O)c2c1` [2-Isopropylthioxanthone], the LC retention time in series [1] is 17.5 min; in series [2] it was 17.2 min.

Take `CCCN(CCC)CCC` [Tripropylamine]: the LC retention time was 12.5 min in series [1] and 6.53 min in series [2].

As to `CC1=C2C(=O)C3C(CC=C4CC(O)CCC43C)C2CCC12OC1CC(C)CNC1C2C` (centres undefined) [Jervine], the LC retention time in series [1] is 15.2 min; in series [2], 11.7 min.
